We go through 2 compounds from patent US10369186B2, “Method of treating decline in brain function comprising coadministration of citrulline and glutathione” (KYOWA HAKKO BIO CO., LTD., priority 2012, dated 2019).

Experiment [1] deals with C57BL/6J mice. The experiment is described as follows: Y-maze test (spontaneous alternation behavior) after bilateral common carotid arteries occlusion. Format: in vivo. The following applies: oral, 7 days, FIG. 1. How it is done:
(§1) Experimental Example: 10-week-old male C57BL/6J mice (CLEA Japan, Inc. approximately 25 g of average body weight per mouse) were preliminarily acclimated for 1 week, and provided for experiments. Citrulline and glutathione were obtained from KYOWA HAKKO BIO CO., LTD.
(§2) C57BL/6J mice were divided into a sham-operation group (Group 1) and a bilateral common carotid arteries occlusion group, which was performed under halothane anesthesia for 20 minutes. One day after reperfusion, the bilateral common carotid arteries occlusion group was further divided into a distilled water-treated group (Group 2), a low-dose citrulline-treated group (40 mg/kg: Group 3), a low-dose glutathione-treated group (40 mg/kg: Group 4), a high-dose citrulline-treated group (100 mg/kg: Group 5), a high-dose glutathione-treated group (100 mg/kg: Group 6), and a combination treatment group of a low dose of citrulline and a low dose of glutathione (each 40 mg/kg: Group 7). Each sample was orally administered for 12 days. One week after starting administration, learning memory-improving effects were examined by a Y-maze test, a passive avoidance test, and a novel object recognition test. After evaluating learning memory functions, the hippocampus was removed and viability of hippocampal nerve cells was evaluated.
In the Y-maze test, a Y-maze apparatus with three arms (50×16×32 cm) was used. Mice were placed at any one arm of the Y-maze and were allowed to explore freely through the maze for 8 minutes. The sequence of arm entries was recorded. The number of entries into each arm was counted during the measurement time, which was defined as the total number of entries. Of them, the successive entry into the three different arms was examined, and this number was defined as the spontaneous alternation behavior number. The spontaneous alternation behavior number was divided by (the total number of arm entries minus two), and then multiplied by 100, which was defined as the spontaneous alternation behavior rate (Alternation) and used as an index for spontaneous alternation behavior.

The test system of experiment [2] is C57BL/6J mice. The experiment is described as follows: Passive avoidance test after bilateral common carotid arteries occlusion. The following applies: oral, 7 days, FIG. 2. In kind it is in vivo. As to the method: as §1, §2
The passive avoidance test was performed using a box consisting of dark (25×25×25 cm) and light compartments (14×10×25 cm) and being equipped with an electrical stimulation apparatus at the bottom of the dark compartment. During training, as soon as the mouse entered the dark compartment from the light compartment, the door was closed, and an electrical stimulation (0.3 mA, for 2 seconds) was delivered. Twenty four hours after training, the mouse was placed again in the light compartment, and the latency time spent in the light compartment was recorded with a maximum latency of 300 seconds.

Experiment [3] relates to C57BL/6J mice. Nature of the experiment: Novel object recognition test after bilateral common carotid arteries occlusion. In kind it is in vivo. As to conditions: oral, 7 days, FIG. 3. As to the method: as §1, §2
The novel object recognition test was performed after mice were individually acclimated to the open field apparatus (35×25×35 cm) for 2 days. During training, mice were allowed to explore freely for 10 minutes in an apparatus where two identical objects were symmetrically placed. After 1 hour, one object was replaced by a novel object, and mice were allowed to explore freely for 5 minutes. Object exploration was defined as standing on the objects, touching the object with the nose, or sniffing the object within 1 cm from the object. A ratio of the frequency of exploring the familiar or novel object over the total exploration frequency was calculated, and used as an index for visual recognition memory.

Experiment [4] concerns hippocampal nerve cells. Nature of the experiment: Evaluation of viability of hippocampal nerve cells after bilateral common carotid arteries occlusion. Format: in vivo, mice. As to conditions: oral, 12 days, CA1 pyramidal cell layer, FIG. 4. As to the method:
as §1, §2
Twelve days after bilateral occlusion of the common carotid arteries, mice were anesthetized with pentobarbital sodium, and perfused with ice-cold phosphate buffer (PBS, pH 7.4) until the blood in the body was completely removed. Immediately, mice were perfused with a fixative solution containing 4% paraformaldehyde. The brain tissues were fixed at 4° C. for 24 hours, and coronal sections having a thickness of 50 μm were prepared. Serial sections containing the hippocampus were stained with propidium iodide (PI, 5 μmol/L) dissolved in PBS and observed under a fluorescent microscope. Surviving and non-surviving nerve cells in the CA1 pyramidal cell layer of the hippocampus were counted at 1.4 to 1.8 mm posterior to bregma, and cells with PI-positive nuclei and typical morphological characteristics were defined as […]. The cell viability was calculated from a ratio to the average number of surviving nerve cells in Group 1.

The mark [5] stands for this setting: high dose 100 mg/kg alone (Group 5 citrulline, Group 6 glutathione).
Setting [6] is: low dose 40 mg/kg alone (Group 3 citrulline, Group 4 glutathione), vs distilled water Group 2.
Setting [7] is: low dose 40 mg/kg alone (Group 3 citrulline, Group 4 glutathione), vs Group 2.
[8] abbreviates: low dose 40 mg/kg alone (Group 3 citrulline, Group 4 glutathione).

With `NC(=O)NCCC[C@H](N)C(=O)O` [citrulline], the “spontaneous alternation behavior rate (Alternation)” value in experiment [1] (setting [5]) was “remarkably improved effect of memory behavior”; in experiment [1] (setting [6]) it was “Alternation cannot be improved”. Also, the “time spent in the light compartment (Latency time)” value in experiment [2] (setting [5]) is reported as “remarkably improved effect of memory behavior”; in experiment [2] (setting [7]) it was “latency time cannot be improved”. The “frequency of exploring the novel object” value is given as “remarkably improved effect of memory behavior” in experiment [3] (setting [5]) and “frequency of exploring the novel object cannot be increased” in experiment [3] (setting [8]). The “viability of hippocampal nerve cells” value is recorded as “nerve cell-protecting effect” in experiment [4] (setting [5]) and “viability of hippocampal nerve cells cannot be improved” in experiment [4] (setting [7]).

For the compound `N[C@@H](CCC(=O)N[C@@H](CS)C(=O)NCC(=O)O)C(=O)O` [glutathione], the “spontaneous alternation behavior rate (Alternation)” value was “remarkably improved effect of memory behavior” in experiment [1] (setting [5]) and “Alternation cannot be improved” in experiment [1] (setting [6]). In addition, the “time spent in the light compartment (Latency time)” value in experiment [2] (setting [5]) is listed as “remarkably improved effect of memory behavior”; in experiment [2] (setting [7]) it was “latency time cannot be improved”. For the same compound, the “frequency of exploring the novel object” value was “remarkably improved effect of memory behavior” in experiment [3] (setting [5]) and “frequency of exploring the novel object cannot be increased” in experiment [3] (setting [8]). For the same compound, the “viability of hippocampal nerve cells” value in experiment [4] (setting [5]) is listed as “nerve cell-protecting effect”; in experiment [4] (setting [7]) it was “viability of hippocampal nerve cells cannot be improved”.
